# Assay results taken from patent US20110178105A1, “CLINICAL BENEFITS OF EICOSAPENTAENOIC ACID IN HUMANS” (E.I. DU PONT DE NEMOURS AND COMPANY, priority 2010, published 2011).
# Values joined by “and” are separate entries in the source; they are usually repeats but may differ in a detail not shown here. Identical values can stand only once.
# What was measured:
# [1] = Clinical study: post-prandial lipids 4 hours after fat-rich test meal; format: in vivo, human; conditions: 6 weeks
# Protocol: (§1) At visit 2, subjects were again asked to fast for 12 hours, and information about subject characteristics including all vital signs, recent illness or hospitalization, medication and supplement use, and diet information was again obtained. Subjects then had blood drawn for a metabolic profile and complete blood counts. […] Subjects (30 in each group) were then randomized equally for 6 weeks to one of four treatment arms: 1) olive oil placebo; 2) 600 mg of EPA/day; 3) 1800 mg of EPA/day; and, 4) 600 mg of DHA/day. At one week and three weeks after beginning the supplements, all study subjects were contacted by telephone and asked about any adverse effects and about their compliance, and the information on their calendars with regard to capsule use and fish intake. They were also asked about whether they had experienced any fishy aftertaste or odor, and if so, how frequent were these episodes, and how unpleasant were they? The entire process as listed above was repeated after study subjects were on the study capsules for 6 weeks at the time of the final visit. Compliance and adverse events were assessed by telephone at weeks 1 and 3 by telephone and at week 6 by questionnaire and capsule count. Over 42 days, subjects were expected to have consumed a total of 252 capsules. Compliance was calculated as a percentage of consumed capsule count/expected capsule count based on the number of days the subject was in the study. All subjects were asked to stay on their capsules until they come in for their final visit. Compliance in all participants who completed the study was based on capsule count was in excess of 85%, mean 96%.
# (§2) On the samples obtained 4 hours after the fat-rich meal, total cholesterol, triglycerides, direct HDL cholesterol, and direct LDL cholesterol were measured. Direct LDL cholesterol and small dense LDL cholesterol levels were measured using kits obtained from Denka-Seiken Corporation, (Tokyo, Japan), as previously described (Okada, M. et al., supra; Hirano, T. et al., supra; Ai, M. et al., supra). Remnant lipoprotein cholesterol was measured using kits obtained from Polymedco (Cortland Manor, N.Y.) and manufactured by Otsuka Corporation (Tokyo, Japan) as previously described (McNamara, J. R. et al., Atherosclerosis, supra). All lipid assays are standardized through the Lipid Research Clinics standardization program of the Centers for Disease Control (Atlanta, Ga.). All assays had between and within run coefficients of variation of <5%. Serum fatty acid profiles were analyzed by Nutrasource Diagnostics (Guelph, Ontario, Canada).
# [2] = cited from earlier work; for better absorbed than EE forms: TG forms
# [3] = Clinical study: fasting serum lipids, lipoproteins and apolipoproteins (automated analyzer); format: in vivo, human; conditions: 6 weeks; for HDL C, 6-Week Change (%) / HDL C, Final / LDL C, 6-Week Change (%) / LDL C, Final / Lp(a), 6-Week Change (%) / Lp(a), Final / Total Cholesterol, 6-Week Change (%) / Total Cholesterol, Final / Triglyceride, 6-Week Change (%) / Triglyceride, Final / apoA-I, 6-Week Change (%) / apoA-I, Final / apoB, 6-Week Change (%) / apoB, Final / sdLDL, 6-Week Change (%) / sdLDL, Final: Fast
# Protocol: as §1
# The following laboratory measurements were carried out on an automated analyzer (Roche Diagnostics, Indianapolis, Ind.) on samples obtained in the fasting state at the randomization visit, and the final visits using frozen aliquots of serum stored at −80 degrees Celsius: 1) total cholesterol; 2) triglycerides; 3) direct high density lipoprotein [“HDL”] cholesterol; 4) direct low density lipoprotein [“LDL”] cholesterol; 5) direct small dense LDL cholesterol; 6) apolipoprotein [“apo”] B; 7) apoA-I; 8) lipoprotein (a); 9) fibrinogen; 10) high sensitivity C reactive protein [“hs-CRP”]; 11) lipoprotein associated phospholipase A2 [“Lp-PLA2”]; and, 12) insulin as previously described. See, McNamara, J. R. and Schaefer, E. J., Clin. Chim. Acta, 166:1-8 (1987); Okada, M. et al., J. Lab. Clin. Med., 132:195-201 (1998); Hirano, T. et al., J. Lipid Res., 44:2193-2201 (2003); Ai, M. et al., Am. J. Cardiol., 101:315-318 (2008); Ingelsson, E. et al., JAMA, 298:776-785 (2007); Jenner, J. L. et al., Circulation, 87:1135-1141 (1993); Schaefer, E. J. et al., Am. J. Cardiol., 95:1025-1032 (2005); McNamara, J. R. et al., Atherosclerosis, 154:229-236 (2001).
# as §2
compound,measurement,setting,value
"CCC=CCC=CCC=CCC=CC/C=C\CCCC(=O)O [EPA, cis-5,8, 11, 14, 17-eicosapentaenoic acid]","HDL C, 6-Week Change (%)",[1]; EPA 600 mg (n = 27),+4.8 ± 20.7%
same,"HDL C, Final",[1]; EPA 600 mg (n = 27),53.1 ± 16.4 mg/dL
same,"LDL C, 6-Week Change (%)",[1]; EPA 600 mg (n = 27),−1.4 ± 12.9%
same,"LDL C, Final",[1]; EPA 600 mg (n = 27),108.2 ± 32.2 mg/dL
same,"Total Cholesterol, 6-Week Change (%)",[1]; EPA 600 mg (n = 27),−0.3 ± 8.6%
same,"Total Cholesterol, Final",[1]; EPA 600 mg (n = 27),193.3 ± 44.7 mg/dL
same,"Triglyceride, 6-Week Change (%)",[1]; EPA 600 mg (n = 27),−3.1 ± 36.9%
same,"Triglyceride, Final",[1]; EPA 600 mg (n = 27),184.9 ± 98.5 mg/dL
same,"HDL C, 6-Week Change (%)",[1]; EPA 1800 mg (n = 29),+3.4 ± 11.5%
same,"HDL C, Final",[1]; EPA 1800 mg (n = 29),55.3 ± 15.3 mg/dL
same,"LDL C, 6-Week Change (%)",[1]; EPA 1800 mg (n = 29),−2.7 ± 13.6%
same,"LDL C, Final",[1]; EPA 1800 mg (n = 29),111.5 ± 25.2 mg/dL
same,"Total Cholesterol, 6-Week Change (%)",[1]; EPA 1800 mg (n = 29),−1.4 ± 9.9%
same,"Total Cholesterol, Final",[1]; EPA 1800 mg (n = 29),197.3 ± 33.8 mg/dL
same,"Triglyceride, 6-Week Change (%)",[1]; EPA 1800 mg (n = 29),−3.8 ± 40.2%
same,"Triglyceride, Final",[1]; EPA 1800 mg (n = 29),193.5 ± 184.2 mg/dL
same,better absorbed than EE forms,[2],48%
same,EPA incorporation into plasma lipids,[2]; administered as an EE,considerably smaller
same,LDL cholesterol levels,[3]; FIG. 5,did not increase
same,"HDL C, 6-Week Change (%)",[3]; EPA 600 mg (n = 27),+0.4 ± 13.7%
same,"HDL C, Final",[3]; EPA 600 mg (n = 27),57.9 ± 18.0 mg/dL
same,"LDL C, 6-Week Change (%)",[3]; EPA 600 mg (n = 27),−2.5 ± 11.7%
same,"LDL C, Final",[3]; EPA 600 mg (n = 27),118.1 ± 35.8 mg/dL
same,"Lp(a), 6-Week Change (%)",[3]; EPA 600 mg (n = 27),+18.3 ± 84.8%
same,"Lp(a), Final",[3]; EPA 600 mg (n = 27),32.8 ± 32.4 mg/dL
same,"Total Cholesterol, 6-Week Change (%)",[3]; EPA 600 mg (n = 27),−1.8 ± 9.5%
same,"Total Cholesterol, Final",[3]; EPA 600 mg (n = 27),199.2 ± 48.7 mg/dL
same,"Triglyceride, 6-Week Change (%)",[3]; EPA 600 mg (n = 27),−1.3 ± 31.6%
same,"Triglyceride, Final",[3]; EPA 600 mg (n = 27),107.0 ± 43.2 mg/dL
same,"apoA-I, 6-Week Change (%)",[3]; EPA 600 mg (n = 27),−1.3 ± 12.4%
same,"apoA-I, Final",[3]; EPA 600 mg (n = 27),173.6 ± 36.3 mg/dL
same,"apoB, 6-Week Change (%)",[3]; EPA 600 mg (n = 27),−2.3 ± 10.9%
same,"apoB, Final",[3]; EPA 600 mg (n = 27),90.1 ± 22.8 mg/dL
same,"sdLDL, 6-Week Change (%)",[3]; EPA 600 mg (n = 27),−7.3 ± 18.2%
same,"sdLDL, Final",[3]; EPA 600 mg (n = 27),29.5 ± 12.0 mg/dL
same,decrease versus baseline in small dense LDL cholesterol,"[3]; EPA 600 mg/day, p=0.0087",7.3%
same,"HDL C, 6-Week Change (%)",[3]; EPA 1800 mg (n = 29),+2.5 ± 12.7%
same,"HDL C, Final",[3]; EPA 1800 mg (n = 29),59.9 ± 15.7 mg/dL
same,"LDL C, 6-Week Change (%)",[3]; EPA 1800 mg (n = 29),−2.0 ± 13.7%
same,"LDL C, Final",[3]; EPA 1800 mg (n = 29),120.6 ± 26.8 mg/dL
same,"Lp(a), 6-Week Change (%)",[3]; EPA 1800 mg (n = 29),+5.1 ± 26.1%
same,"Lp(a), Final",[3]; EPA 1800 mg (n = 29),32.2 ± 23.6 mg/dL
same,"Total Cholesterol, 6-Week Change (%)",[3]; EPA 1800 mg (n = 29),−1.7 ± 11.2%
same,"Total Cholesterol, Final",[3]; EPA 1800 mg (n = 29),201.1 ± 35.3 mg/dL
same,"Triglyceride, 6-Week Change (%)",[3]; EPA 1800 mg (n = 29),−5.0% and −5.0 ± 28.6%
same,"Triglyceride, Final",[3]; EPA 1800 mg (n = 29),102.8 ± 82.8 mg/dL
same,"apoA-I, 6-Week Change (%)",[3]; EPA 1800 mg (n = 29),+0.4 ± 10.8%
same,"apoA-I, Final",[3]; EPA 1800 mg (n = 29),173.1 ± 31.3 mg/dL
same,"apoB, 6-Week Change (%)",[3]; EPA 1800 mg (n = 29),−1.6 ± 12.2%
same,"apoB, Final",[3]; EPA 1800 mg (n = 29),91.7 ± 19.1 mg/dL
same,"sdLDL, 6-Week Change (%)",[3]; EPA 1800 mg (n = 29),−8.8 ± 19.5%
same,"sdLDL, Final",[3]; EPA 1800 mg (n = 29),30.6 ± 9.4 mg/dL
same,decrease versus baseline in small dense LDL cholesterol,"[3]; EPA 1800 mg/day, p=0.018",8.8%
"CCC=CCC=CCC=CCC=CCC=CC/C=C\CCC(=O)O [DHA, cis-4,7, 10, 13, 16, 19-docosahexaenoic acid, reference compound]","HDL C, 6-Week Change (%)",[1]; DHA 600 mg (n = 28),+1.2 ± 10.9%
same,"HDL C, Final",[1]; DHA 600 mg (n = 28),57.5 ± 22.7 mg/dL
same,"LDL C, Final",[1]; DHA 600 mg (n = 28),121.9 ± 32.9 mg/dL
same,"Total Cholesterol, 6-Week Change (%)",[1]; DHA 600 mg (n = 28),+6.2 ± 10.8%
same,"Total Cholesterol, Final",[1]; DHA 600 mg (n = 28),211.1 ± 38.6 mg/dL
same,"Triglyceride, 6-Week Change (%)",[1]; DHA 600 mg (n = 28),−9.5% and −9.5 ± 24.4%
same,"Triglyceride, Final",[1]; DHA 600 mg (n = 28),169.8 ± 89.2 mg/dL
same,better absorbed than EE forms,[2],36%
same,"HDL C, 6-Week Change (%)",[3]; DHA 600 mg (n = 28),+1.3 ± 14.7%
same,"HDL C, Final",[3]; DHA 600 mg (n = 28),62.0 ± 23.7 mg/dL
same,"LDL C, Final",[3]; DHA 600 mg (n = 28),130.3 ± 37.2 mg/dL
same,"Lp(a), 6-Week Change (%)",[3]; DHA 600 mg (n = 28),+27.7 ± 156.3%
same,"Lp(a), Final",[3]; DHA 600 mg (n = 28),40.0 ± 40.1 mg/dL
same,"Total Cholesterol, 6-Week Change (%)",[3]; DHA 600 mg (n = 28),+2.9 ± 12.0%
same,"Total Cholesterol, Final",[3]; DHA 600 mg (n = 28),216.1 ± 44.1 mg/dL
same,"Triglyceride, 6-Week Change (%)",[3]; DHA 600 mg (n = 28),−5.8 ± 30.4%
same,"Triglyceride, Final",[3]; DHA 600 mg (n = 28),104.4 ± 58.0 mg/dL
same,"apoA-I, 6-Week Change (%)",[3]; DHA 600 mg (n = 28),−2.0 ± 10.5%
same,"apoA-I, Final",[3]; DHA 600 mg (n = 28),177.5 ± 43.0 mg/dL
same,"apoB, 6-Week Change (%)",[3]; DHA 600 mg (n = 28),+6.0 ± 15.6%
same,"apoB, Final",[3]; DHA 600 mg (n = 28),97.1 ± 25.7 mg/dL
same,"sdLDL, 6-Week Change (%)",[3]; DHA 600 mg (n = 28),−2.2 ± 24.7%
same,"sdLDL, Final",[3]; DHA 600 mg (n = 28),31.1 ± 13.3 mg/dL
